Literature values as cited in US20150290158A1, “X-RAY CONTRAST MEDIA COMPOSITIONS AND METHODS OF USING THE SAME TO TREAT, REDUCE OR DELAY THE ONSET OF CNS INFLAMMATION AND INFLAMMATION ASSOCIATED CONDITIONS” (priority 2012, published 2015).
Peptide text beside a SMILES is read from it.

How the values were obtained:
TNF-alpha = conditions: in vitro
[1] = tested on: allergen induced nasal obstruction; conditions: used as a nasal spray, in vivo
mast cell degranulation = conditions: in vitro, immunological and non-immunological stimuli
[2] = biological target: angiotensin converting enzyme (ACE) (Homo sapiens, UniProt P12821); conditions: compared with commercial iopamidol (contains chelator); from Lasser et al., 1990
Chain of angiotensin converting enzyme (ACE) (P12821 30-1306, species assumed): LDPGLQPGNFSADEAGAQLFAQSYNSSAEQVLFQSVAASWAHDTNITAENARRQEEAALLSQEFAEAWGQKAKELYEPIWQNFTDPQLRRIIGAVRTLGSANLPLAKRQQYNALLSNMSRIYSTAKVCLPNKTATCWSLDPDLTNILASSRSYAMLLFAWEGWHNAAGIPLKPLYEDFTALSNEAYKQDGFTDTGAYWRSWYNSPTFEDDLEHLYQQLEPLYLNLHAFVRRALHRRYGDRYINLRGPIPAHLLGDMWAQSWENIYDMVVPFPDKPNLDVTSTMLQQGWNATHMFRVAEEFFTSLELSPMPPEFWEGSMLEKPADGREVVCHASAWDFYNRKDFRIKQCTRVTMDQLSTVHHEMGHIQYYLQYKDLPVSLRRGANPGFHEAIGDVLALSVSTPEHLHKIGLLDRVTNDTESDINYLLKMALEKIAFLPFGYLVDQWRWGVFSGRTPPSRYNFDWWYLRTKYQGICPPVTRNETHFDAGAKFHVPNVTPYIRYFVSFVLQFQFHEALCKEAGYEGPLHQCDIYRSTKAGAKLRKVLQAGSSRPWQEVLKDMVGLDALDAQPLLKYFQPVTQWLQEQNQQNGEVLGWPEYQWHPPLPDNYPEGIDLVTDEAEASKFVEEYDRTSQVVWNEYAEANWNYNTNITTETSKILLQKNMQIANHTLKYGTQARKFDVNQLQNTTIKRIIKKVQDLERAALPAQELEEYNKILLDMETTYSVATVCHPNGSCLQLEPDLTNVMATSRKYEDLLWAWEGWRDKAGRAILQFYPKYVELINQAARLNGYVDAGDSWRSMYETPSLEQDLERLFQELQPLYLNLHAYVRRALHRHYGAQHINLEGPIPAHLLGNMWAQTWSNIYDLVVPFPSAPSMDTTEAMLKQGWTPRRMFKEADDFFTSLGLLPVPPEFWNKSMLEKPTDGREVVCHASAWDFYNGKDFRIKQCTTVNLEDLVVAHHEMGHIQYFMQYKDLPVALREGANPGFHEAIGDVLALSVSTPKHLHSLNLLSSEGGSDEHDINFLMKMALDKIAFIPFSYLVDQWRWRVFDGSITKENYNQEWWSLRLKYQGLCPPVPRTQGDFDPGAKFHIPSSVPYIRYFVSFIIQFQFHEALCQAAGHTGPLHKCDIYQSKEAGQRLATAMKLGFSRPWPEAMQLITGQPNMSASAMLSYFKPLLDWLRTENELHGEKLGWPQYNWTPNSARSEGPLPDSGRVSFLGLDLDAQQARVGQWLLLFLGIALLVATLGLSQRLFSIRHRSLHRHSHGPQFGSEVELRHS

Structure (SMILES): O=C(O)c1cc(=O)c2c(OCC(O)COc3cccc4oc(C(=O)O)cc(=O)c34)cccc2o1 [Sodium cromoglycate]
- inhibition of TNF-alpha (TNF-alpha): inhibited TNF-alpha in vitro

Structure (SMILES): CC(=O)N[C@@H](CC(=O)[O-])C(=O)N[C@@H](CCC(=O)[O-])C(=O)O.[Mg+2] [magnesium salt of n-acetyl aspartyl glutamic acid] (Ac-Asp-Glu-OH)
- allergen induced nasal obstruction [1]: reduce allergen induced nasal obstruction
- mast cell degranulation (mast cell degranulation): inhibit mast cell degranulation

Structure (SMILES): CCCc1c2oc(C(=O)[O-])cc(=O)c2cc2c(=O)cc(C(=O)[O-])n(CC)c12.[Na+].[Na+] [nedocrimal sodium]
- inhibition of TNF-alpha (TNF-alpha): inhibited TNF-alpha in vitro

Structure (SMILES): C[C@H](O)C(=O)Nc1c(I)c(C(=O)NC(CO)CO)c(I)c(C(=O)NC(CO)CO)c1I [purified iopamidol, iopamidol]
- inhibition of ACE [2]: diminishes the inhibition ACE significantly
